From patent US20180354920A1, “SUBSTITUTED OXADIAZOLES FOR COMBATING PHYTOPATHOGENIC FUNGI” (BASF SE, priority 2015, published 2018) come the findings set out here.

A word on the melting point: it is the temperature of the solid-liquid transition. Consider `CCC(=O)Nc1ccc(-c2noc(C(F)(F)F)n2)cn1` [Ex-1, N-[5-[5-(trifluoromethyl)-1,2,4-oxadiazol-3-yl]-2-pyridyl]propanamide], for which the melting point was found to be 130 °C.
